Laboratory results from patent US20030021796A1, “Method of enhancing T cell immunity by selection of antigen specific T cells” (priority 2001, published 2003).
Entries after “also recorded” stand apart in the source; their conditions may differ. Residues, ends and D or L forms follow the SMILES beside them.

Assays:
[1] = test system: transgenic CD4^+ thymocytes; assay: Positive selection of CD4^+ thymocytes after peptide injection into TCR^TgTCRα^−H2-M^−Ii^− mice (flow cytometry of thymus); assay type: in vivo, mouse; conditions: for positive selection of transgenic thymocytes: i.p., non-deleting dose (20 μg); for percentage of CD4^+ single positive cells (thymus): 3 days after peptide injection; for effect on thymic selection: exogenous peptides without agonist properties
From the text: Mice. The TCR genes were cloned from T cell hybridoma specific for analogs of the PCC(43-58) peptide and expressed in VA-hCD2 cassette (Ignatowicz et al., 1997; Kraj et al., 2001; Zhumabekov et al., 1995). All TCR transgenic mice were made by co-microinjection of the respective […] and TCRβ constructs into fertilized eggs of F1 (C57BL/6×CBA/Ca) mice. TCR Tg mice were crossed to C57B16/TCRα^− (Jackson Laboratory, ME) mice and to mice deficient in H2-M (kindly provided by E. Bikoff and R. Germain) and Ii (kindly provided by L. van Kaer) to obtain TCR^TgTCRα^− H2-M^−Ii^−.
(§1) Flow cytometry analysis. Monoclonal antibodies specific for CD4(RM4-5), CD8(53-6.7), VβB8(F23.1), CD69(H1.2F3), CD44(IM7) and CD62L(MEL-14) were purchased from PharMingen (San Diego, Calif.) and used according to manufacturer's recommendations. Cells were analyzed using a FACSCalibur instrument (Becton Dickinson, San Jose, Calif.) and CellQuest software. For intracellular stain cells were first stained for CD4 and CD8, fixed in 2% paraformaldehyde, permeabilized in 0.1% Tween-20 and stained with anti-bcl-2 antibody (Pharmingen) according to manufacturer instruction.
(§2) Peptide injections and surgical procedures. TCR^TgTCRα^− and TCR^TgTCRαH2-M^−Ii^− were injected i.p. with agonist and control peptides dissolved in PBS. After indicated time mice were sacrificed, thymus and lymph nodes were collected and single cell suspensions were prepared. Pups were injected with 2 μg of peptide subcutaneously 12-24 hours after birth and thymi were transplanted into recipient mice 24 hours after injection. 5-8 week old TCR^TgTCRα^− H2-M^−Ii^− mice were used for thymectomy or as thymic transplant recipients. Surgical procedures were performed as described (Coligan et al., 1997). Mice were handled according with the institutional guidance.

[2] = test system: TCR^TgTCRα^− lymph node cells; assay: Proliferation of TCR transgenic lymph node cells stimulated with agonist peptides ([3H]thymidine incorporation); assay type: cell-based, mouse; conditions: for recognition by the transgenic TCR / stimulation of transgenic cells: peptides presented by irradiated C57BL6 splenocytes; for agonist potency / agonist properties: in vitro stimulation of transgenic T cells
Description: Antigen response of TCR transgenic cells. Proliferation of lymph node cells isolated from TCR^TgTCRα^−and TCR^TgTCRα^−2-M^−Ii^− mice injected with the selecting peptide was measured in response to antigen. Response of the TCR^TgTCRα^− lymph node cells to different agonist peptides was measured by proliferation assay in a 96-well plate. 10^5 responder cells were stimulated with peptides presented by 5×10^5 irradiated C57BL6 splenocytes. Agonist peptides were used at concentrations of 0.01, 0.1, 0.5, 1.0, 2.5, 5.0, 10.0 and 20.0 μM. After 3 days cells were pulsed with 1 μCi of [^3H]thymidine added to each well and after 18 hours thymidine incorporation was measured. The sequences of peptides used were: PCC50V (AEGFSYTVANKNKGIT), PCC50L (AEGFSYTLANKNKGIT), PCC50V54A (AEGFSYTVANKAKGIT), PCC46A49A50V54A (AEGASYAVANKAKGIT), PCC50F54A (AEGFSYTFANKAKGIT), neutral ceramidase (AGFFQYTLYILASEG) and IgGVH (NADFKTPATLTVDKA). All peptides were synthesized by FMOC (fluorenyl methoxycarbonyl) chemistry and purified by reversed-phase high-performance liquid chromatography. To compare the antigenic response of CD4^+ TCR Tg cells lymph node cells were collected from TCR^TgTCRα^− and TCR^TgTCRα^−H2-M^−Ii^− mice two weeks after peptide injection. Single cell suspensions were prepared and CD4^+ cells were sorted using magnetic beads coated with anti CD4 antibodies (MACS). Purity of sorted cells exceeded 85%. 2×10^4 of purified CD4^+ cells were used in proliferation assay. Cells were stimulated with increasing concentrations of agonist peptides presented by APCs from wild type or H2-M^−Ii^− mice. IgGVH derived peptide (20 μM) was used as a negative control. Peptides were presented by irradiated splenocytes from a C57BL6 mouse. Proliferation was measured after 3 days by thymidine incorporation by pulsing cells with 1 μCi of [^3H] thymidine for 18 hours. Antagonism assay was done by prepulsing 5×10^5 antigen-presenting cells per well for 2 hr. with 5 μM of the antigenic peptide PCC50V54A, washing, and then exposing them to varying concentrations of peptide analogs with 2×10^4 purified CD4^+ TCR^Tg lymphocytes as responder cells (Lyons et al., 1996). For antagonism assays the percent of proliferation inhibition was calculated as 100-100*(thymidine incorporation in the presence of antagonist/thymidine incorporation in the absence of antagonist) (Lyons et al., 1996).

[3] = test system: transgenic thymocytes; assay: Negative selection of transgenic thymocytes after i.p. peptide injection into TCR^TgTCRα^− mice (wild type A^b); assay type: in vivo, mouse; conditions: 24 hours; for negative selection / deletion of transgenic thymocytes: 200 μg/mouse i.p.
Description: as §1, §2
Characterization of peptide agonists for the PCC specific transgenic αβTCR. To examine the role of peptides during positive selection in vivo, the inventors generated transgenic mice expressing class II restricted TCR specific for analogs of a pigeon cytochrome C peptide PCC(43-58) presented by the A molecule (Kraj et al., 2001). This receptor recognizes analogs of PCC(43-58) in which aspartic acid in position 50 is replaced by amino acids with neutral/hydrophobic (PCC50V, PCC50V54A, PCC46A49A50V54A, PCC50L, PCC50F) side chains (FIG. 6 and FIG. 9). The TCR transgenic mice were backcrossed to C57BL6 TCRα^− knockout mice so that almost all T cells expressing transgenic TCR become CD4^+ T cells (FIG. 4A and FIG. 10A). Initially, the inventors examined the capacity of agonist peptides to induce negative selection of transgenic T cells.

[4] = test system: peptide selected CD4^+ cells; assay: Antigen response (proliferation) of lymph node CD4^+ cells from peptide-injected TCR^TgTCRα^−H2-M^−Ii^− mice; assay type: cell-based, mouse
Description: Antigen response of TCR transgenic cells. Proliferation of lymph node cells isolated from TCR^TgTCRα^−and TCR^TgTCRα^−2-M^−Ii^− mice injected with the selecting peptide was measured in response to antigen. Response of the TCR^TgTCRα^− lymph node cells to different agonist peptides was measured by proliferation assay in a 96-well plate. 10^5 responder cells were stimulated with peptides presented by 5×10^5 irradiated C57BL6 splenocytes. Agonist peptides were used at concentrations of 0.01, 0.1, 0.5, 1.0, 2.5, 5.0, 10.0 and 20.0 μM. After 3 days cells were pulsed with 1 μCi of [^3H]thymidine added to each well and after 18 hours thymidine incorporation was measured. The sequences of peptides used were: PCC50V (AEGFSYTVANKNKGIT), PCC50L (AEGFSYTLANKNKGIT), PCC50V54A (AEGFSYTVANKAKGIT), PCC46A49A50V54A (AEGASYAVANKAKGIT), PCC50F54A (AEGFSYTFANKAKGIT), neutral ceramidase (AGFFQYTLYILASEG) and IgGVH (NADFKTPATLTVDKA). […] Proliferation was measured after 3 days by thymidine incorporation by pulsing cells with 1 μCi of [^3H] thymidine for 18 hours. […] For antagonism assays the percent of proliferation inhibition was calculated as 100-100*(thymidine incorporation in the presence of antagonist/thymidine incorporation in the absence of antagonist) (Lyons et al., 1996).

[5] = test system: lymph node cells; assay: Repopulation of peripheral lymph nodes in peptide-injected TCR^TgTCRα^−H2-M^−Ii^− mice; assay type: in vivo, mouse; conditions: for percentage of CD4^+ positive cells (lymph node): analyzed 12 days after injection
Description: as §1, §2

[6] = test system: OT-II transgenic thymocytes; assay: Selection of OT-II transgenic thymocytes in OT-II TCRα^−→TCRα^−H2M^−Ii^− chimeras after peptide injection; assay type: in vivo, mouse
From the text: OT-II agonist peptide may be used for positive selection of transgenic CD4^+ cells. Injection of a low dose of agonist peptides restores positive selection of OT-II transgenic CD4^+ T cells in […] →TCRα^−2-M^−Ii^− chimeras. OT-II transgenic mice (C57BL/6TgN(TcrOva)) express a Class II restricted T cell receptor for ovalbumin residues 323-339 in the context of H-2^b. To determine if the experimental approach can be applied to other transgenic CD4^+ T cells, radiation chimeras were generated where TCRα^−H2-H2-M^−Ii^− mice were lethally irradiated and reconstituted with fetal liver from OT-II^TgTCRα^− mice. In these chimeras the development of OT-II^TgTCRα^− thymocytes is arrested at the CD4^+CD8^+ stage due to the lack of endogenous selecting peptides. After 8 weeks chimeras were injected once with different doses of the agonist Ova(323-339) peptide, which is a peptide present in the ovalbumin protein.

CC[C@H](C)[C@H](NC(=O)CNC(=O)[C@H](CCCCN)NC(=O)[C@H](CC(N)=O)NC(=O)[C@H](CCCCN)NC(=O)[C@H](CC(N)=O)NC(=O)[C@H](C)NC(=O)[C@H](CCC(=O)O)NC(=O)[C@@H](NC(=O)[C@H](Cc1ccc(O)cc1)NC(=O)[C@H](CO)NC(=O)[C@H](Cc1ccccc1)NC(=O)CNC(=O)[C@H](CCC(=O)O)NC(=O)[C@H](C)N)[C@@H](C)O)C(=O)N[C@H](C(=O)O)[C@@H](C)O [PCC50E] (H-AEGFSYTEANKNKGIT-OH)
number of CD4^+ thymocytes positively selected by PCC50V54A on co-injection of antagonist ([1]; 3 μg antagonist + 3 μg PCC50V54A, four days later): significantly reduced

AEGASYAVANKAKGIT [PCC46A49A50V54A, analog of PCC(43-58); agonist]
positive selection of transgenic thymocytes [1]: restored positive selection
recognition by the transgenic TCR / stimulation of transgenic cells [2]: recognizes

AEGFSYTFANKAKGIT [PCC50F54A, analog of PCC(43-58); agonist]
positive selection of transgenic thymocytes [1]: restored positive selection
recognition by the transgenic TCR / stimulation of transgenic cells [2]: stimulate

AEGFSYTLANKNKGIT [PCC50L, analog of PCC(43-58)]
positive selection of transgenic thymocytes [1]: restored positive selection
agonist potency / agonist properties [2]: Strong agonists
recognition by the transgenic TCR / stimulation of transgenic cells [2]: recognizes; also recorded: stimulate
negative selection / deletion of transgenic thymocytes [3]: induced profound negative selection

AEGFSYTVANKNKGIT [PCC50V, analog of PCC(43-58)]
positive selection of transgenic thymocytes [1]: restored positive selection
agonist potency / agonist properties [2]: moderate agonist
recognition by the transgenic TCR / stimulation of transgenic cells [2]: recognizes; also recorded: stimulate
negative selection of transgenic thymocytes ([3]; 20 μg i.p., thymus cellularity, annexin V, TUNNEL): did not induce negative selection
negative selection / deletion of transgenic thymocytes [3]: induced only marginal deletion; also recorded: induced only limited deletion

AGFFQYTLYILASEG [neutral ceramidase]
positive selection of transgenic CD4^+ thymocytes ([1]; 50 μg i.p.): weak positive selection; also recorded: mediates positive selection
percentage of CD4^+ single positive cells (thymus) ([1]; 50 μg i.p.): 1.7±0.6 percentage
response of peptide selected CD4^+ cells to agonist peptides in vitro [4]: weakly proliferated; also recorded: respond in vitro
agonist potency / agonist properties [2]: weak agonist
CD4^+ cells in peripheral lymph nodes ([5]; after i.p. injection, about two weeks): appeatence of CD4^+ lymphocytes in the peripheral lymph nodes
percentage of CD4^+ positive cells (lymph node) [5]: 7.6±1.8 percentage

NADFKTPATLTVDKA [IgGVH, reference compound]
percentage of CD4^+ single positive cells (thymus) ([1]; 50 μg i.p.): 0.8±0.4 percentage
effect on thymic selection [1]: had no effect on thymic selection
percentage of CD4^+ positive cells (lymph node) [5]: 2.4±0.8 percentage

Ova(323-339): peptide present in the ovalbumin protein; agonist for the OT-II TCR (KISQAVHAAHAEINEAG; UniProt P01012 323-339, looked up, fragment)
effect on thymic selection [1]: had no effect on thymic selection
negative selection of transgenic thymocytes ([6]; high dose (100 μg and above)): induced negative selection
selection of CD4^+ thymocytes ([6]; low dose (5-20 μg)): induced selection of a significant number of CD4^+ thymocytes
response of selected thymocytes to selecting peptide ([6]; mouse, in vivo): continued to respond to stimulation by selecting peptide; also recorded: retain their ability to respond to selecting peptide
selection of transgenic CD4^+ thymocytes ([6]; single injection of 10 μg, 48 and 72 hours): initiates selection of transgenic CD4^+Vβ5^+ thymocytes
